Assay results from patent US12527788B2, “Defining RNA-small molecule affinity landscapes enables design of a small molecule inhibitor of an oncogenic non-coding RNA” (University of Florida Research Foundation, Incorporated, priority 2017, dated 2026).
Entries after “also recorded” stand apart in the source; their conditions may differ.

Legend:
pre-miR-17 = experiment: In vitro Dicer inhibition assay; type: biochemical, human; settings: low micromolar concentrations
Method: (§1) Initial studies were completed in vitro to determine if compound 4 (Targapremir-18a) inhibits Dicer processing of each miRNA separately in the miR-17-92 cluster using radioactively labeled RNA (FIG. 8A). […] Thus, inhibition of Dicer processing by 4 is selective for miR-17, -18a, and -20a and non-selective inhibition of Dicer processing is not observed.
(§2) Dicer Inhibition Assay: The template used for pre-miR-18a (5′-[…] GCTCCTTCTGGCA) (SEQ ID NO: 41) was PCR-amplified in 1×PCR Buffer, 2 μM forward primer (5′-[…]-AAGGTGCATCTAGTGCAGA) (SEQ ID NO: 42), 2 μM reverse primer (5′-[…]) (SEQ ID NO: 43), 4.25 mM MgCl2, 330 μM dNTPs, and 2 μL of Taq DNA polymerase in a 50 μL reaction. Cycling conditions were 95° C. for 30 s, 55° C. for 30 s, and 72° C. for 60 s. […] The samples was then supplemented with 1 mM ATP and 2.5 mM MgCl2. Serially diluted concentrations of 4 were added and the samples were incubated at room temperature for 15 min. Next, 0.005 units/μL of recombinant human Dicer (Genlantis) were added followed by incubation at 37° C. overnight. Reactions were stopped by adding the manufacturer's supplied stop solution.
(§3) A T1 ladder (cleaves G residues) was generated by heating the RNA in 1×RNA Sequencing Buffer (20 mM sodium citrate, pH 5.0, 1 mM EDTA, and 7 M urea) at 55° C. for 10 min followed by slowly cooling to room temperature. RNase T1 was then added to a final concentration of 3, 0.3, 0.03 units/μL and the solution was incubated at room temperature for 20 min. An RNA hydrolysis ladder was generated by incubating RNA in 1×RNA hydrolysis buffer (50 mM NaHCO3, pH 9.4, and 1 mM EDTA) at 95° C. for 5 min. In all cases, cleavage products were separated on a denaturing 15% polyacrylamide gel and imaged using a Bio-Rad PMI phosphorimager.

pre-miR-18a = experiment: In vitro Dicer inhibition assay; type: biochemical, human; settings: low micromolar concentrations
Method: as §1, §2, §3

pre-miR-19a = experiment: In vitro Dicer inhibition assay; type: biochemical, human
Method: as §1, §2, §3

pre-miR-19b = experiment: In vitro Dicer inhibition assay; type: biochemical, human
Method: as §1, §2, §3

pre-miR-20 = experiment: In vitro Dicer inhibition assay; type: biochemical, human; settings: low micromolar concentrations
Method: as §1, §2, §3

mature miR-17 = experiment: RT-qPCR of mature miRNA levels in DU145 cells; type: cell-based; settings: Homo sapiens, DU-145, read-out: IC50 for decrease of mature miRNA
Method: (§4) In particular, the mature levels of each miRNA in the cluster were studied by RT-qPCR. In agreement with our in vitro Dicer processing studies (FIG. 8A and Figures S-58-S-62), 4 decreases the amount of mature miR-17, -18a, and -20a at low micromolar concentrations with an IC50 of ˜10 µM, but has no effect on miR-19a, -19b, and -92a (FIG. 8B).
(§5) Cell Culture: DU145 cells were cultured in growth medium (Roswell Park Memorial Institute medium (RPMI) supplemented with 10% fetal bovine serum (FBS)) at 37° C. and 5% CO2
(§6) Total RNA was extracted from cells using a Quick-RNA Miniprep Kit (Zymo Research) per the manufacturer's protocol. Approximately 200 ng of total RNA was used in reverse transcription (RT) reactions, which were completed using a miScript II RT kit (Qiagen) per the manufacturer's protocol. RT-qPCR was performed on a 7900HT Fast Real Time PCR System (Applied Biosystem) using power SYBR Green Master Mix (Applied Biosystems). All primer sets were purchased from Integrated DNA Technologies, Inc. (IDT) or Eurofins (Table S1). The expression levels of mature miRNAs were normalized to U6 small nuclear RNA or 18s rRNA.

mature miR-18a = experiment: RT-qPCR of mature miRNA levels in DU145 cells; type: cell-based; settings: Homo sapiens, DU-145, read-out: IC50 for decrease of mature miRNA
Method: as §4, §5, §6

mature miR-20a = experiment: RT-qPCR of mature miRNA levels in DU145 cells; type: cell-based; settings: Homo sapiens, DU-145, read-out: IC50 for decrease of mature miRNA
Method: as §4, §5, §6

[1] = test system: 33 mature miRNAs with potential binding sites for 4; experiment: Profiling of mature miRNAs with potential binding sites in DU145 cells; type: cell-based, human
Source text: We further probed the selectivity of 4 by studying its effect on levels of other mature miRNAs (FIG. 8C) and on pre-miR-17, -18a and -20a. We identified miRNAs with potential binding sites for 4, as determined by HiT-StARTS, using a database of RNA folds in the human miRNA transcriptome,^38 including the 5′G_U/3′CUA bulge common to the Dicer processing sites in miR-17, -18a and -20a (n=33). The potential binding sites for 4 can occur anywhere in the miRNA; that is, they were not confined to Drosha or Dicer processing sites. Other miRNAs that contain the 5′G_U/3′CUA motif have a much lower expression level than miR-17, miR-18a, and miR-20. Studying these RNAs could allow assessment of influence of expression level on compound potency and selectivity, an important consideration in RNA targeting that has largely gone unaddressed.
Collectively, it appears that it is easier to target and inhibit the biogenesis of highly expressed miRNAs than the ones that are of lower expression. Such effects have been well-documented in the protein-targeting community but until now have not been studied in RNA targeting endeavors.
Cell Culture: DU145 cells were cultured in growth medium (Roswell Park Memorial Institute medium (RPMI) supplemented with 10% fetal bovine serum (FBS)) at 37° C. and 5% CO2 […]

[2] = test system: other miRNAs studied (of the 33 with potential binding sites); experiment: Chem-CLIP in DU145 cell lysates; parameters: species or system human; settings: 10 μM, DU145 cell lysate
Method: Chem-CLIP in Cell Lysates: DU145 cells were cultured as described above in 100 mm dishes and lysed with 500 μL of Cell Lysis Buffer (10 mM Tris pH 7.4, 0.25% Igepal CA-630 and 150 mM NaCl) for 5 min at room temperature. The cell lysate was then centrifuged and the supernatant collected. Next, 10 μM of 4 was added to the lysate in 1×PBS and the sample was incubated for 2 h at room temperature. The reaction was then directly used for pull-down by incubating with 50 μL of streptavidin resin in 1×PBS for 30 min at room temperature. […] RNA was eluted from the streptavidin beads by incubation with 100 μL of 1× Elution Buffer (10 mM EDTA and 95% formamide) at 65° C. for 20 min. The eluted RNA was cleaned up using a Quick-RNA Miniprep Kit (Zymo) per the manufacturer's protocol. RT-qPCR was completed as described above using 50 ng of total RNA in the RT reaction. Expression levels were normalized to 18S rRNA.

- IC50 (mature miR-17): ~10 µM
- IC50 (mature miR-18a): ~10 µM
- IC50 (mature miR-20a): ~10 µM
Compound: CN1CCN(c2ccc(-c3ccc4nc(-c5cc(C(C)(C)C)c(OCCCC(=O)NCCCN=[N+]=[N-])c(C(C)(C)C)c5)[nH]c4c3)cc2)CC1 [Compound 4]
- Inhibition of Dicer processing (pre-miR-17): inhibited Dicer processing
- Inhibition of Dicer processing (pre-miR-18a): inhibits in vitro Dicer processing; also recorded: inhibited Dicer processing
- Effect on Dicer processing (pre-miR-19a): no effect
- Effect on Dicer processing (pre-miR-19b): no effect
- Inhibition of Dicer processing (pre-miR-20): inhibited Dicer processing
- Effect on levels of 33 other mature miRNAs [1]: no statistically significant effect
- Enrichment in pulled-down fraction [2]: no enrichment
